Experimental data: patent US20090275611A1, “Compounds Which Modulate The CB2 Receptor” (BOEHRINGER INGELHEIM INTERNATIONAL GMBH, priority 2006, published 2009)

molecular target: T1, human CB2R (Homo sapiens, UniProt P34972); assay: CB2R mediated modulation of cAMP synthesis; assay type: cell-based; conditions: qualitative statement; found 'through the use of the above described assays'; CHO cells expressing human CB2R, forskolin-stimulated cAMP
T1 construct: host or cells: CHO cells
Experimental: B. CB2R Mediated Modulation of cAMP Synthesis:
CHO cells expressing human CB2R (Euroscreen) were plated at a density of 5000 cells per well in 384 well plates and incubated overnight at 37° C. After removing the media, the cells were treated with test compounds diluted in stimulation buffer containing 1 mM IBMX, 0.25% BSA and 10 uM Forskolin. The assay was incubated for 30 minutes at 37° C. Cells were lysed and the cAMP concentration was measured using DiscoverX-XS cAMP kit, following the manufacturer's protocol. In this setting, agonists will decrease forskolin induced production of cAMP while inverse agonists will further increase forskolin induced production of cAMP. EC50 of agonists were calculated as follows. The maximal amount of cAMP produced by forskolin compared to the level of cAMP inhibited by 1 uM CP55940 is defined as 100%. The EC50 value of each test compound was determined as the concentration at which 50% of the forskolin-stimulated cAMP synthesis was inhibited. Data was analyzed using a four-parameter logistic model. (Model 205 of XLfit 4.0).

T1 sequence (P34972 whole entry): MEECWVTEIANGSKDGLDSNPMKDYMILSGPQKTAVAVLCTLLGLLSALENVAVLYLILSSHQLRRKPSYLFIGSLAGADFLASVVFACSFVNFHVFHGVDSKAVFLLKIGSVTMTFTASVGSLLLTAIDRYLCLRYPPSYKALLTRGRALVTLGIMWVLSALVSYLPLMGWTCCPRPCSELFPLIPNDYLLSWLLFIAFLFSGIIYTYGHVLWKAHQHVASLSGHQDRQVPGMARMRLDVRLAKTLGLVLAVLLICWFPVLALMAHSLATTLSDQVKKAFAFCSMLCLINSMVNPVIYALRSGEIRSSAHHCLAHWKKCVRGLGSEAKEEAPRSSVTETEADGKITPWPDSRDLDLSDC

Row | SMILES | agonistic activity
1 | Cc1ccc(C)c(Nc2ccc(CN(C)CC(O)c3ccccc3)cc2)c1 (centres unmarked) [Example 1, 2-{[4-(2,5-Dimethyl-phenylamino)-benzyl]-methyl-amino}-1-phenyl-ethanol] | agonistic activity
2 | CN(Cc1ccc(Nc2ccccc2)cc1)CC(O)c1ccccc1 (centres unmarked) [Example 2, 2-[methyl-(4-phenylamino-benzyl)-amino]-1-phenyl-ethanol] | agonistic activity
3 | Cc1ccc(Cl)c(Nc2ccc(CN(C)CC(O)c3ccccc3)cc2)c1 (centres unmarked) [Example 3, 2-{[4-(2-chloro-5-methyl-phenylamino)-benzyl]-methyl-amino}-1-phenyl-ethanol] | agonistic activity
4 | CN(Cc1ccc(Nc2ccccc2Cl)cc1)CC(O)c1ccccc1 (centres unmarked) [Example 4, 2-{[4-(2-chloro-phenylamino)-benzyl]-methyl-amino}-1-phenyl-ethanol] | agonistic activity
5 | CN(Cc1ccc(Nc2ccccc2Cl)cc1)C[C@H](O)c1ccccc1 [Example 5, (R)-2-{[4-(2-chloro-phenylamino)-benzyl]-methyl-amino}-1-phenyl-ethanol] | agonistic activity
6 | Cc1ccccc1Nc1ccc(CN(C)CC(O)c2ccccc2)cc1 (centres unmarked) [Example 6, 2-[methyl-4(o-tolylamino-benzyl)-amino]-1-phenyl-ethanol] | agonistic activity
7 | Cc1ccc(C)c(Nc2ccc(CN(C)CC(O)c3ccccc3)cn2)c1 (centres unmarked) [Example 7, 2-{[6-(2,5-dimethyl-phenylamino)-pyridin-3-ylmethyl]-methyl-amino}-1-phenyl-ethanol] | agonistic activity
8 | Cc1ccc(Cl)c(Nc2ccc(CN(C)CC(O)c3ccccc3)cn2)c1 (centres unmarked) [Example 8, 2-{[6-(2-chloro-5-methyl-phenylamino)-pyridin-3-ylmethyl]-methyl-amino}-1-phenyl-ethanol] | agonistic activity
9 | Cc1ccc(Cl)cc1Nc1ccc(CN(C)CC(O)c2ccccc2)cn1 (centres unmarked) [Example 9, 2-{[6-(5-chloro-2-methyl-phenylamino)-pyridin-3-ylmethyl]-methyl-amino}-1-phenyl-ethanol] | agonistic activity
10 | CN(Cc1ccc(Nc2ccccc2Cl)nc1)CC(O)c1ccccc1 (centres unmarked) [Example 10, 2-{[6-(2-chloro-phenylamino)-pyridin-3-ylmethyl]-methyl-amino}-1-phenyl-ethanol] | agonistic activity
11 | Cc1ccccc1Nc1ccc(CN(C)CC(O)c2ccccc2)cn1 (centres unmarked) [Example 11, 2-[methyl-(6-o-tolylamino-pyridin-3-ylmethyl)-amino]-1-phenyl-ethanol] | agonistic activity
12 | CN(Cc1ccc(Nc2ccccc2)cc1)C[C@H](O)c1ccccc1 [Example 15, (R)-2-[Methyl-(4-phenylamino-benzyl)-amino]-1-phenyl-ethanol] | agonistic activity
13 | CN(Cc1ccc(S(=O)(=O)c2ccccc2)cc1)C[C@H](O)c1ccccc1 [Example 17, (R)-2-[(4-Benzenesulfonyl-benzyl)-methyl-amino]-1-phenyl-ethanol] | agonistic activity
14 | CN(Cc1ccc(Oc2ccccc2)cc1)C[C@H](O)c1ccccc1 [Example 19, (R)-2-[Methyl-(4-phenoxy-benzyl)-amino]-1-phenyl-ethanol] | agonistic activity
15 | CN(Cc1cnc2ccccc2c1)C[C@H](O)c1ccccc1 [Example 20, (R)-2-(Methyl-quinolin-3-ylmethyl-amino)-1-phenyl-ethanol] | agonistic activity
16 | CN(Cc1ccc(Oc2ccccc2)nc1)C[C@@H](O)c1ccccc1 [Example 21, (S)-2-[Methyl-(6-phenoxy-pyridin-3-ylmethyl)-amino]-1-phenyl-ethanol] | agonistic activity
17 | O[C@H](CNCc1cnc2ccccc2c1)c1ccccc1 [Example 22, (S)-1-Phenyl-2-[(quinolin-3-ylmethyl)-amino]-ethanol] | agonistic activity
